We go through 1 compound from article PMC10464103, “Antibacterial peptide PMAP-37(F34-R), expressed in Pichia pastoris, is effective against pathogenic bacteria and preserves plums” (Microbial Cell Factories, 2023).

On the set-up of data set [1]: method as in PMID 31858653. The note with it: compared with antibiotic; cited from earlier work.
Data set [2] has as its system S. aureus. The data set can be described thus: Membrane permeability, PI staining. Type of data set: cell-based. The following applies: 37 °C, 30 min with peptide, then PI; fluorescence microscope. Here is the method:
The permeability assay was performed as previously described with slight modifications. S. aureus was until the OD600 reached 0.3–0.6, washed three times with PBS, and resuspended to 1 × 10^8 CFU/mL. The bacteria (100 µL) were mixed with 50 µL of antimicrobial peptide and incubated at 37 °C for 30 min, with PBS as a control. The supernatant was centrifuged and discarded, the bacteria were resuspended with PI-diluted dye, and stained at 37 °C for 30 min. After washing three times with PBS, the unbound stain was removed, and 10 µL of PBS was taken; an appropriate amount of […] was added onto the slide, the cover glass was observed by fluorescence microscope.

In data set [3] the test system is S. aureus. Put plainly: Stability at different temperatures and pH, read out by inhibition zone. The following applies: 4 µg/mL peptide, antibacterial activity against S. aureus by inhibition zone. Type of data set: physicochemical. Here is the method:
(§1) The inhibition zone method was performed as described in a previous study with slight modifications. Fifty microliters of the bacterial solution was mixed with 15 mL lysogeny broth, and the inhibition zone of the six bacteria was determined by drilling after coagulation. The stability of PMAP-37(F34-R) against S. aureus was determined using the inhibition zone method. 4 µg/mL PMAP-37(F-34R) was dissolved in buffers with different pH (2, 4, 6, 8, and 10), different proteases (papain, pepsin, trypsin, and protease K), and different temperatures (4, 25, 37, 65, and 90 °C). The stability profiles under various pH, proteases, and temperatures were determined. Untreated buffer was used as a negative control.

Data set [4] relates to S. aureus, Listeria monocytogenes, B. subtilis, Salmonella typhimurium, E. coli O157, E. coli. The data set can be described thus: Inhibition zone method. Type of data set: cell-based. The note with it: inhibition zone in LB agar; three Gram-positive and three Gram-negative bacteria; positive control 50 µg/mL gentamicin. Here is the method:
as §1

In data set [5] the test system is S. aureus. The data set can be described thus: Total nucleotide leakage. Type of data set: cell-based. The following applies: within 30 min after treatment; 37 °C, PBS; OD 260 nm of supernatant. Here is the method:
The total nucleotide leakage experiment was performed according to a previously reported method with slight modifications. S. aureus was collected, washed twice, and resuspended in PBS to an OD600 of 0.8. Antimicrobial peptides were added and incubated at 37 °C for various durations. The bacterial solution was centrifuged to remove S. aureus. The OD of the supernatant was recorded at a wavelength of 260 nm.

Peptide text beside a SMILES is read from it.

Consider `CC[C@H](C)[C@H](NC(=O)[C@H](CCCNC(=N)N)NC(=O)[C@H](CCC(=O)O)NC(=O)[C@@H](NC(=O)[C@H](CCCCN)NC(=O)[C@H](CCC(=O)O)NC(=O)CNC(=O)[C@H](CC(C)C)NC(=O)[C@H](CCCNC(=N)N)NC(=O)[C@H](CCCNC(=N)N)NC(=O)CNC(=O)[C@H](CCCNC(=N)N)NC(=O)[C@H](CC(=O)O)NC(=O)[C@H](CO)NC(=O)[C@H](CC(C)C)NC(=O)[C@H](Cc1ccccc1)NC(=O)[C@H](CC(=O)O)NC(=O)[C@H](CCCNC(=N)N)NC(=O)[C@H](CC(C)C)NC(=O)[C@H](CCCNC(=N)N)NC(=O)[C@H](CO)NC(=O)[C@H](CC(C)C)NC(=O)[C@H](CC(C)C)NC(=O)CN)[C@@H](C)CC)C(=O)NCC(=O)N[C@@H](CCC(N)=O)C(=O)N[C@@H](CCCCN)C(=O)N[C@H](C(=O)N[C@@H](CCCCN)C(=O)N[C@@H](CC(=O)O)C(=O)N[C@@H](CC(C)C)C(=O)N[C@@H](CO)C(=O)N[C@@H](CCC(=O)O)C(=O)N[C@@H](CCCNC(=N)N)C(=O)N[C@@H](Cc1ccccc1)C(=O)N[C@@H](CCC(N)=O)C(=O)N[C@@H](CO)C(=O)O)[C@@H](C)CC` [PMAP-37(F34-R)] (H-GLLSRLRDFLSDRGRRLGEKIERIGQKIKDLSERFQS-OH; N-terminus and C-terminus assumed), for which the “efficacy in animal experiments” value in data set [1] is given as “comparable to that of ceftifol sodium”. For the same compound, the “PI staining (membrane integrity)” value in data set [2] is reported as “extensive cell death”. For the same compound, in data set [3] (4, 25, 37, 65 °C), the “stability at other temperatures” value is recorded as “maintained good stability”. In addition, the “stability at high temperature” value in data set [3] (90 °C) was “partially affected”. Also, in data set [3] (pH 2, 4, 6, 8 buffers), the “stability at other pH” value is given as “maintained good stability”. Further, the “stability in strong base” value in data set [3] (pH = 10 buffer) is reported as “partially affected”. For the same compound, the “inhibitory effect (inhibition zone)” value in data set [4] is on record as “inhibited all six bacteria tested”. Besides, the nucleotide leakage entry in data set [5] is on record as “increased significantly”.
